Assay results from article PMC11040670, “Mechanistic and Kinetic Insights into Cellular Uptake of Biomimetic Dinitrosyl Iron Complexes and Intracellular Delivery of NO for Activation of Cytoprotective HO-1” (JACS Au, 2024).

Key:
[1] = tested on: HCEC; experiment: Intracellular release of NO (DAF-FM fluorescence) in HCEC; type: cell-based, human; conditions: 75 μM DNIC–COOH or 1 μM DNIC–COOMe
Experimental: (§1) Intracellular release of NO by DNIC–COOH was validated using the fluorescence probe 4-amino-5-methylamino-2′,7′-difluorofluorescein diacetate (DAF-FM) in combination with fluorescence analysis techniques. Briefly, the MSC cells (or N2a and HCEC cells) were seeded onto a 96-well black plate at a density of 6 × 10^3 cells/well (or 1 × 10^4 cells/well for N2a and 8 × 10^3 cells/well for HCEC cells) and incubated at 37 °C overnight. On the next day, the MSC cells were first treated with 10 μM of DAF-FM (or 5 μM for N2a and HCEC cells) and incubated at 37 °C for 0.5 h. […] Fluorescence intensity of the cells was then recorded using a microplate reader (SpectraMax iD3, Molecular Devices, San Jose, CA) with an excitation wavelength at 485 nm and an emission wavelength at 525 nm. Three independent experiments were executed to measure the time-dependent change of average fluorescence intensity. Time-dependent change of average fluorescence intensity for the MSC/N2a/HCEC cells with sequential treatment of DAF-FM (10 μM for MSC cells, 5 μM for N2a cells, 5 μM for HCEC cells; 0.5 h) and DNIC–COOMe (2.5 μM for MSC cells, 10 μM for N2a cells, 1 μM for HCEC cells) was determined in a similar manner. […]

[2] = tested on: MSC; experiment: Whole-cell EPR: cellular uptake and intracellular formation/decomposition of mononuclear DNIC in MSC; type: cell-based, human; conditions: for tmax for cellular uptake and intracellular transformation (whole-cell EPR): normoxia, 100 μM DNIC–COOH or 2.5 μM DNIC–COOMe
Experimental: Cellular uptake of DNIC–COOH and intracellular formation/decomposition of mononuclear DNICs in MSC/N2a/HCEC cells were investigated using EPR spectroscopy. Briefly, cells were seeded into two (or one) 100 mm dish(es) at a density of 2 × 10^6 cells/dish and incubated at 37 °C overnight. On the next day, cells were treated with 100 μM of DNIC–COOH (or 100 μM of DNIC–COOH to N2a and 75 μM of DNIC–COOH to HCEC) and incubated for 0, 0.5, 1, 2, 3, 4, 8, and 24 h, respectively. After removal of the supernatant solution, cells were washed with DPBS before addition of 1 mL of trypsin (0.05%)/EDTA (0.53 mM) and incubation for 5 min at 37 °C. After the obtained cell suspension solutions from two 100 mm dishes were combined and centrifuged at 100g for 5 min, the supernatant was removed before addition of 100 μL of αMEM to DNIC-treated MSC (or MEM to DNIC-treated N2a and HSFM to DNIC-treated HCEC). This solution was then transferred into EPR quartz tube and frozen in N2(l) before the EPR measurements. For each measured EPR spectrum, double integration was executed to obtain the integrated EPR intensity under each condition. Moreover, time-dependent decay of integrated EPR signal intensity after treatment of DNIC–COOH was fit to pseudo-first-order kinetics in order to determine the intracellular half-life for EPR-active mononuclear DNIC. Three independent experiments were executed to measure the average half-life for intracellular decomposition of EPR-active mononuclear DNIC after treatment with DNIC–COOH at 37 °C. On the other hand, at the time point with maximum integrated EPR signal intensity, spin quantitation of intracellular EPR-active DNICs was performed using mononuclear DNIC [PPN][(NO)2Fe(S5)] as a standard according to the methodology used in the previous work.[50] Cellular uptake of DNIC–COOMe (2.5 μM to MSC, 10 μM to N2a, or 1 μM to HCEC) and intracellular formation/decomposition of EPR-active mononuclear DNICs were investigated using EPR spectroscopy in a similar manner.
Studies of cellular uptake mechanisms were investigated using EPR spectroscopy in combination with pretreatments of alternative inhibitors. After the MSC cells were seeded into two (or one) 100 mm dish(es) at a density of 2 × 10^6 cells/dish and incubated at 37 °C overnight, sequential treatments of 50 μM of NEM for 0.5 h and 100 μM of DNIC–COOH for 2 h were performed before the treated MSC cells were collected for EPR measurement following the procedure described above. […]

[3] = tested on: N2a; experiment: Intracellular release of NO (DAF-FM fluorescence) in N2a; type: cell-based, mouse; conditions: 100 μM DNIC–COOH or 10 μM DNIC–COOMe
Experimental: as §1

## O=[N][Fe]1([N]=O)[SH](CCC(=O)O)[Fe]([N]=O)([N]=O)[SH]1CCC(=O)O (stereo not drawn) [DNIC–COOH, [(NO)2Fe(μ-SCH2CH2COOH)2Fe(NO)2]]
[1]
  tmax for intracellular release of NO: 6 h
[2]; CPZ-treated MSC
  relative whole-cell EPR signal intensity at gav = 2.03 (control = 100%): 84.2 ± 11.0%
[2]; MSC
  tmax for cellular uptake and intracellular transformation (whole-cell EPR): 2 h
[3]
  tmax for intracellular release of NO: 4 h

## COC(=O)CC[SH]1[Fe]([N]=O)([N]=O)[SH](CCC(=O)OC)[Fe]1([N]=O)[N]=O (stereo not drawn) [DNIC–COOMe, [(NO)2Fe(μ-SCH2CH2COOCH3)2Fe(NO)2]]
[1]
  tmax for intracellular release of NO: 1 h
[2]; MSC, native FBS replaced with 20% NEM-treated FBS
  relative whole-cell EPR signal intensity at gav = 2.03 (control = 100%): 172.4 ± 24.1%
[2]; MSC
  tmax for cellular uptake and intracellular transformation (whole-cell EPR): 0.5 h
[2]; MSC, pretreatment of NEM 0.5 h, then DNIC–COOMe 0.5 h, reduction
  relative whole-cell EPR signal intensity at gav = 2.03 (control = 100%): 29.7 ± 16.3%
[3]
  tmax for intracellular release of NO: 2 h
